For test [1], the target named is T1, OSGPR116 (Homo sapiens, UniProt Q8TDV5).
T1 sequence (Q8TDV5 1-335): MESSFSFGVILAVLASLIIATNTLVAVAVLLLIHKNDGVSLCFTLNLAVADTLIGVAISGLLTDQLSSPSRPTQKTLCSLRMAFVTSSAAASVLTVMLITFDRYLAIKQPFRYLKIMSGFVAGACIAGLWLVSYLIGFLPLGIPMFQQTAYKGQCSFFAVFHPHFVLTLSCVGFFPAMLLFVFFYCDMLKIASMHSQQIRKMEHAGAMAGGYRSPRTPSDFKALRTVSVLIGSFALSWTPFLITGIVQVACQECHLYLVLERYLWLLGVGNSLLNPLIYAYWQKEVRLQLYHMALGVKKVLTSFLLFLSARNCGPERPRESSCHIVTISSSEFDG
As to the kind of experiment: Cre-SEAP assay in HEK-293-Galpha16 cells transfected with OSGPR116 or empty vector. Format: cell-based. Set-up: expressed in transfected cells; host or cells: HEK-293-Galpha16 cells stably expressing cre-SEAP, transient transfection with lipofectamine. The note with it: OSGPR116 and empty vector transfected cells, 7h, FIG. 12. The protocol: HEK-293—Galpha16 cells stably expressing the cre-SEAP (secreted alkaline phosphatase) reporter construct, and transiently transfected with either the OSGPR116 vector or empty vector control, were grown to between ˜0.5×10^6 and 1×10^7 cells/dish and seeded at 4×10^4 cells/well on poly-D-lysine coated clear-bottom 96-well tissue culture plates. The cells were left to adhere to the plates in media for 24h at 37° C. The media was aspirated and the cells arrested by serum starvation for a further 24h in 200 ul of colorless DMEM.
After serum arrest, the starvation media was aspirated and 90 ul fresh colorless DMEM containing 0.1% BSA was added. 10 ul of 10× compound (or DMSO/H20 control) was added and the plates incubated at 37° C. for 7h. Conditioned media (12.5 ul) was then transferred to a 96 well white flat-bottom plate. Next, 37.5 μl of 1× Tropix Dilution Buffer was added to the transferred culture media. 50 μl of Tropix Assay Buffer was also added. The plate was then incubated at room temperature for 5 minutes. Finally, 50 μl Tropix Reaction Buffer Diluent containing a 1:20 dilution of the CSPD Chemiluminescent Substrate was added. The plate was incubated at room temperature for 60 minutes and luminescence measured.

The test system of test [2] is vector transformed yeast cells. As to the kind of experiment: Yeast reporter assay, vector transformed (no receptor) control yeast. Format: cell-based. The note with it: yeast without OSGPR116 expression, FIGS. 9a, 9b. An excerpt: (§1) The yeast cell-based reporter assays have previously been described in the literature (e.g. see Miret J. J., et. al. (2002) J. Biol. Chem. 277:6881–6887; Campbell R. M., et. al. (1999) Bioorg Med. Chem. Lett. 9:2413–2418; King K., et. al. (1990) Science. 250:121–123); WO 99/14344; WO 00/12704; and U.S. Pat. No. 6,100,042). Briefly, yeast cells have been engineered such that the endogenous yeast G-alpha (GPA1) has been deleted and replaced with G-protein chimeras constructed using multiple techniques. Additionally the endogenous yeast alpha-cell GPCR, Ste3 has been deleted to allow for a […] expression of a mammalian GPCR of choice. In the yeast, elements of the pheromone signaling transduction pathway, which are conserved in eukaryotic cells (for example, the mitogen-activated protein kinase pathway), drive the expression of Fus1. By placing β-galactosidase (LacZ) under the control of the Fus1 promoter (Fus1p), a system has been developed whereby receptor activation leads to an enzymatic read-out. Different yeast strains (e.g. FIG. 10) denote the presence of different G-alpha chimeras (see “yeast reporter assays” in Results section below for definitions).
(§2) Yeast cells are transformed by an adaptation of the Lithium acetate method described by Agatep et.al. (Agatep, R., et. al. (1998) Transformation of Saccharomyces cerevisiae by the lithium acetate/single-stranded carrier DNA/polyethylene glycol (LiAc/ss-DNA/PEG) protocol. Technical Tips Online, Trends Journals, Elsevier). Briefly, yeast cells are grown overnight on yeast tryptone plates (YT). Carrier single-stranded DNA (10 μg), 2 μg of each of two Fus1p-LacZ reporter plasmids (one with URA selection marker and one with TRP), 2 μg of OSGPR116 in yeast expression vector (2μ origin of replication) and a lithium acetate/polyethylene glycol/TE buffer is pipetted into an Epindorf tube. The yeast expression plasmid containing the receptor/no receptor control has a LEU marker. Yeast cells are inoculated into this mixture and the reaction proceeds at 30° C. for 60 minutes. The yeast cells are then heat-shocked at 42° C. for 15 minutes. The cells are then washed and spread on selection plates. The selection plates are synthetic defined yeast media minus LEU, URA and TRP (SD-LUT). After incubating at 30° C. for 2–3 days, colonies that grow on the selection plates are then tested in the LacZ assay.
(§3) In order to perform fluorometric enzyme assays for β-galactosidase, yeast cells were grown overnight in liquid SD-LUT media to an unsaturated concentration (i.e. the cells are still dividing and have not yet reached stationary phase). They are diluted in fresh media to an optimal assay concentration and 90 μL of yeast cells were added to 96-well black polystyrene plates (Costar). Compounds, dissolved in ethanol and diluted in a 1% BSA solution to 10× concentration, were added to the plates and the yeast are placed at 30° C. for 4h. After 4h, the substrate for the β-galactosidase is added to each well. The substrate may yield a fluorescent or calorimetric read-out upon the activity of the β-galactosidase. In these experiments, Fluorescein di (β-D-galactopyranoside) was used (FDG), a substrate for the enzyme that releases fluorescein, allowing a fluorometric read-out. 20 μL of 500 uM FDG was used. After incubation of the cells with the substrate for 30–60 mins, 20 μL of 1M sodium carbonate is added to terminate the reaction and enhance the fluorescent signal. The plates were then read in a fluorometer at 485/535 nm. As an alternate read-out system, the yeast are also engineered with a Fus1p-HIS gene which means that activation of the receptor can also be measured through the growth of the yeast in a […] deficient media.
In general terms: A reporter such as luciferase makes a cellular process visible.

In test [3] the target is T2, mouse homolog of OSGPR116 (Mus musculus, UniProt Q7TQP3).
T2 construct: expressed in transfected cells; host or cells: engineered yeast (GPA1 and Ste3 deleted, G-alpha chimera, Fus1p-LacZ reporters)
T2 sequence (Q7TQP3 1-335): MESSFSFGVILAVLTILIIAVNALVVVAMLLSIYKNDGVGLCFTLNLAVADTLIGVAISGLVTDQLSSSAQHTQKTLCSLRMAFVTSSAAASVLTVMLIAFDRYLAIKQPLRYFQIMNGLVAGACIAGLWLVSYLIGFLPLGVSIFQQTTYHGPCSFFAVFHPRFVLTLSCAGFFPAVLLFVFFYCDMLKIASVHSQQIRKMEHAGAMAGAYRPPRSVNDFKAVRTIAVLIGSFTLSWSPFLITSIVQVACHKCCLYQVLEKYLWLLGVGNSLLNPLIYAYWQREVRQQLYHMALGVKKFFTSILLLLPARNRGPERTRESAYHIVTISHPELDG
Description: Yeast cell-based Fus1p-LacZ reporter assay, mouse OSGPR116. The note with it: mouse isoform, FIG. 9b; Galpha-q5 yeast, 4h incubation.
Text: as §1, §2, §3

The target in test [4] is T1, OSGPR116. Description: Yeast cell-based Fus1p-LacZ reporter assay, human OSGPR116. Set-up: expressed in transfected cells; host or cells: engineered yeast (GPA1 and Ste3 deleted, G-alpha chimera, Fus1p-LacZ reporters). The note with it: human isoform, FIG. 9a; Galpha-q5 yeast, 4h incubation.
Text: as §1, §2, §3

For test [5], the target named is T1, OSGPR116. Set-up: expressed in transfected cells; host or cells: yeast strains 13397, 13393, 15070, 18043, 20202, 10151 with different G-alpha chimeras. The note with it: as described in earlier U.S. patents; cited from earlier work.

The structures appear in SMILES notation.

Regarding `CCNC(=O)[C@H]1O[C@@H](n2cnc3c(N)ncnc32)[C@H](O)[C@@H]1O` [NECA], at OSGPR116 [1], the “luminescence (cre-SEAP, cAMP response element driven secreted alkaline phosphatase)” value (“luminescence” below) is “clear increase”.
With `CCCCCCCC/C=C\CCCCCCCC(N)=O` [oleamide], the “increase in fluorescence in vector transformed cells” value (from here on “increase”) in test [2] was “not”. Besides, the “effect on fluorescence (β-galactosidase activity) in yeast transformed with OSGPR116 receptor” value (shortened to “effect on fluorescence”) (in test [3]; at OSGPR116 [4]) was “increase in fluorescence” in each case.
Regarding `CCCCCCCCCCCCCCCCCC(=O)NCCO` [stearoyl ethanolamide], the “increase” value in test [2] is reported as “not”. Also, the “effect on fluorescence” value (in test [3]; at OSGPR116 [4]) was “increase in fluorescence” throughout.
With `CCCC(C)(C)c1ccc2c(c1)OC(C)(C)[C@@H]1CC=C(C)C[C@@H]21` [JWH-133], on OSGPR116 [4], the “effect on fluorescence” value is given as “no effect”.
Take `CC1=C(/C=C/C(C)=C/C=C/C(C)=C/C(=O)O)C(C)(C)CCC1` [ATRA, all-trans-retinoic acid]: the “luminescence” value is on record as “no effect” at OSGPR116 [1] and “Lack of effect” at OSGPR116 [1] (listed as all-trans retinoic acid (ATRA)). Besides, the “effect on fluorescence” value on OSGPR116 [4] is reported as “no effect”. Moreover, on OSGPR116 [5], the “production of cyclic AMP in host cells expressing recombinant receptor” value is “stimulate the production of cyclic AMP”.
As to `CC/C=C\C/C=C\C/C=C\C/C=C\C/C=C\C/C=C\CCC(=O)NCCO` [docosahexaenoic acid ethanolamide], the “effect on fluorescence” value at OSGPR116 [4] is recorded as “no effect”.
`CCCCC/C=C\C/C=C\C/C=C\C/C=C\CCCC(=O)NCCO` [anandamide]: in test [2], the “increase” value is “not”. In addition, the “effect on fluorescence” value (in test [3]; on OSGPR116 [4]) was “increase in fluorescence” in each case.
For `CCCCCCC(C)(C)c1ccc([C@@H]2C[C@H](O)CC[C@H]2CCCO)c(O)c1` [CP55940], at OSGPR116 [4], the “effect on fluorescence” value is on record as “no effect”.
Same read-out and setting: under `Cc1c(C(=O)c2cccc3ccccc23)c2cccc3c2n1[C@H](CN1CCOCC1)CO3` [WIN55212-2] stands “no effect”.
Turning to `CCCCCCCCCCCCCCCC(=O)NCCO` [palmitoyl ethanolamide], in test [2], the “increase” value is listed as “not”. Further, the “effect on fluorescence” value (in test [3]; on OSGPR116 [4]) was “increase in fluorescence” in each case.
`Nc1ncnc2c1ncn2[C@@H]1O[C@H](COP(=O)(O)OP(=O)(O)OP(=O)(O)O)[C@@H](O)[C@H]1O` [ATP]: the “luminescence” value at OSGPR116 [1] is on record as “no effect”.
Turning to `CC/C=C\C/C=C\C/C=C\CCCCCCCC(=O)NCCO` [linolenoyl ethanolamide], the “increase” value in test [2] is listed as “not”. Moreover, the “effect on fluorescence” value (in test [3]; at OSGPR116 [4]) was “increase in fluorescence” each time.
For the molecule `CCCCC/C=C\C/C=C\C/C=C\C/C=C\CCCC(=O)N[C@H](C)CO` [methanandamide], the “effect on fluorescence” value at OSGPR116 [4] is “no effect”.

(Values after US7083933B1, “Methods for identification of modulators of OSGPR116 activity” (Prosidion Limited, priority 2003, dated 2006).)
